The data set in a line: Doxorubicin brain concentration after intravenous administration, LC-MS/MS. The conditions noted are these: mice, 7.5 mg/kg intravenous. The protocol: A study was performed to determine doxorubicin distribution after administration, when comparing three doxorubicin-containing compositions, each administered to a group of 10 male ICR mice aged 7 weeks. Composition 1 was free doxorubicin.
Animals were administered doxorubicin in the following amount per administration, for each of the three compositions. Composition 1, was administered in HEPES solution at a dose of 7.5 mg/kg, in a volume of 100 microliter (μl) via the intravenous route. Compositions 2 and 3 were each administered at a dose of 15 mg/kg (equivalent of doxorubicin) in a volume of 300 μl via the intravenous route.
Five mice in each group were sacrificed one hour post administration, and five mice four hours post administration, and doxorubicin brain concentrations were determined using an LC-MS/MS method.

For the molecule `COc1cccc2c1C(=O)c1c(O)c3c(c(O)c1C2=O)C[C@@](O)(C(=O)CO)C[C@@H]3O[C@H]1C[C@H](N)[C@H](O)[C@H](C)O1` [Composition 1, doxorubicin], the doxorubicin brain concentration entry (60 minutes post administration) is on record as “low brain concentration” and the doxorubicin brain concentration entry (240 minutes post administration) is “low brain concentration”.

The values above are taken from US20220305137A1, “DRUG CONTAINING TARGETING LIPOSOMES” (NEXTAR CHEMPHARMA SOLUTIONS LTD., priority 2019, published 2022).
